Reference: ChEMBL document CHEMBL4402537, “Recent development of membrane-active molecules as antibacterial agents” (2019)
Values after ≈ are worked out from the molar mass of the structure shown. Blank lines part the entries; values can stand above or below the compound they belong to.

Assays:
Format in all cases: functional
Klebsiella pneumoniae = experiment: Antibacterial activity against Klebsiella pneumoniae
Staphylococcus aureus [1] = experiment: Antibacterial activity against methicillin resistant Staphylococcus aureus
Acinetobacter baumannii = experiment: Antibacterial activity against Acinetobacter baumannii
Staphylococcus aureus [2] = experiment: Antibacterial activity against Staphylococcus aureus after 10 hrs by broth microdilution assay
Escherichia coli = experiment: Antibacterial activity against Escherichia coli after 10 hrs by broth microdilution assay
Staphylococcus aureus [3] = experiment: Antibacterial activity against methicillin resistant Staphylococcus aureus clinical isolate
Staphylococcus aureus [4] = experiment: Antibacterial activity against methicillin resistant Staphylococcus aureus DM09808R after 18 to 20 hrs by CLSI based direct colony suspension method
Enterococcus faecalis = experiment: Antibacterial activity against Enterococcus faecalis ATCC 29212 after 18 to 20 hrs by CLSI based direct colony suspension method
Staphylococcus aureus [5] = experiment: Antibacterial activity against Staphylococcus aureus ATCC 29213 after 18 to 20 hrs by CLSI based direct colony suspension method
Staphylococcus aureus [6] = experiment: Antibacterial activity against methicillin resistant Staphylococcus aureus DB57964/04 after 18 to 20 hrs by CLSI based direct colony suspension method
Staphylococcus aureus [7] = experiment: Antibacterial activity against methicillin resistant Staphylococcus aureus DM21455 after 18 to 20 hrs by CLSI based direct colony suspension method
Bacillus cereus = experiment: Antibacterial activity against Bacillus cereus ATCC 11778 after 18 to 20 hrs by CLSI based direct colony suspension method

SMILES: CCCCCCCC(=O)N(CCCNC(=O)[C@@H](CCCCN)NC(=O)[C@H](N)CCCCN)CCCNC(=O)[C@@H](CCCCN)NC(=O)[C@H](N)CCCCN.O=C(O)C(F)(F)F.O=C(O)C(F)(F)F.O=C(O)C(F)(F)F.O=C(O)C(F)(F)F.O=C(O)C(F)(F)F.O=C(O)C(F)(F)F
MIC (Klebsiella pneumoniae): 6.3 to 12.5 µg/mL
MIC (Staphylococcus aureus [1]): 6.3 to 12.5 µg/mL
MIC (Acinetobacter baumannii): 6.3 to 12.5 µg/mL

MIC (Staphylococcus aureus [2]): 43 µM
MIC (Escherichia coli): 35 µM
SMILES: CCCCCCCCCCCCNC(=O)C[N+](C)(C)C

SMILES: CCCCCCCCCCCCCC(=O)N(CCCNC(=O)[C@H](N)CCCCN)CCCNC(=O)[C@H](N)CCCCN.O=C(O)C(F)(F)F.O=C(O)C(F)(F)F.O=C(O)C(F)(F)F.O=C(O)C(F)(F)F
MIC (Staphylococcus aureus [1]): 3.1 to 6.3 µg/mL

SMILES: CCCCCCN(Cc1ccc(-c2ccc(CN(CCCCCC)C(=O)[C@@H](N)CCCCN)cc2)cc1)C(=O)[C@@H](N)CCCCN.O=C(O)C(F)(F)F.O=C(O)C(F)(F)F.O=C(O)C(F)(F)F.O=C(O)C(F)(F)F
MIC (Staphylococcus aureus [3]): 6.2 µg/mL
MIC (Staphylococcus aureus [1]): 3.1 µg/mL

SMILES: COc1c(O)cc2oc3cc(O)c(CC=C(C)C)c(O)c3c(=O)c2c1CC=C(C)C [MANGOSTIN]
MIC (Staphylococcus aureus [4]): 0.78 to 1.56 µg/mL (≈ 1.9 to 3.8 µM)
MIC (Enterococcus faecalis): 0.78 to 1.56 µg/mL (≈ 1.9 to 3.8 µM)
MIC (Staphylococcus aureus [5]): 0.78 to 1.56 µg/mL (≈ 1.9 to 3.8 µM)
MIC (Staphylococcus aureus [6]): 0.78 to 1.56 µg/mL (≈ 1.9 to 3.8 µM)
MIC (Staphylococcus aureus [7]): 0.78 to 1.56 µg/mL (≈ 1.9 to 3.8 µM)
MIC (Bacillus cereus): 0.78 to 1.56 µg/mL (≈ 1.9 to 3.8 µM)

MIC (Staphylococcus aureus [2]): 10 µM
MIC (Escherichia coli): 13 µM
SMILES: CCCCCCCCCCCCNC(=O)C[N+](C)(C)CCCCCC[N+](C)(C)CC(=O)NCCCCCCCCCCCC
